# Patent US8703805B2 (Exelixis Patent Company LLC, priority 2005, dated 2014)
# Tested on: LXRα and/or LXRβ
# Assay: LXR/LXRE co-transfection assay (luciferase reporter, CV-1 cells)
# Assay type: cell-based, human
# Details: IC50 or EC50 for LXR (LXRα and/or LXRβ, not distinguished), tested as described in Example 109, CV-1 cells
# How it was run: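 Luciferase readout after 20 h compound exposure at 37 °C in CV-1 cells transiently expressing human LXRα or LXRβ with RXRα and an LXRE-driven reporter. Dose-response over 8 points at ½-log spacing, 4 wells each, fitted for EC50/IC50; values average ≥3 independent experiments, efficacy as % of high control.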
row,SMILES,EC50 [nM]
1,"CCOC(=O)COc1cccc(-c2ccc(-c3cc(C(C)(C)O)nn3-c3ccccc3Cl)cc2)c1 [Example 1297, ethyl ({4′-[1-(2-chlorophenyl)-3-(1-hydroxy-1-methylethyl)-1H-pyrazol-5-yl]biphenyl-3-yl}oxy)acetate]",1000 to 10000
2,"CC(C)(O)c1nn(-c2cccc(F)c2Cl)c(-c2ccc(-c3cccc(S(C)(=O)=O)c3)s2)c1Br [Example 1372, 2-[4-bromo-1-(2-chloro-3-fluorophenyl)-5-{5-[3-(methylsulfonyl)phenyl]-2-thienyl}-1H-pyrazol-3-yl]propan-2-ol]",< 1000
3,"Cc1ccc(Cl)c(-n2nc(C(C)(C)O)cc2-c2ccc(-c3cccc(S(C)(=O)=O)c3)s2)c1Cl [Example 1325, 2-[1-(2,6-dichloro-3-methylphenyl)-5-{5-[3-(methylsulfonyl)phenyl]-2-thienyl}-1H-pyrazol-3-yl]propan-2-ol]",< 1000
4,"CC(C)(O)c1nn(-c2cccc(Cl)c2F)c(-c2ccc(-c3cccc(S(C)(=O)=O)c3)s2)c1Br [Example 1357, 2-[4-bromo-1-(3-chloro-2-fluorophenyl)-5-{5-[3-(methylsulfonyl)phenyl]-2-thienyl}-1H-pyrazol-3-yl]propan-2-ol]",< 1000
